From article PMC9400856 (Molecular Informatics, 2022) come the findings set out here.

This experiment concerns the target mouse β3-adrenergic receptor (mβ3-AR) (Mus musculus, UniProt P25962). The experiment is described as follows: cAMP accumulation. Format: cell-based. A general note: Changes in cAMP serve as a functional read-out for many G protein-coupled receptors.

mouse β3-adrenergic receptor (mβ3-AR), sequence (P25962 whole entry): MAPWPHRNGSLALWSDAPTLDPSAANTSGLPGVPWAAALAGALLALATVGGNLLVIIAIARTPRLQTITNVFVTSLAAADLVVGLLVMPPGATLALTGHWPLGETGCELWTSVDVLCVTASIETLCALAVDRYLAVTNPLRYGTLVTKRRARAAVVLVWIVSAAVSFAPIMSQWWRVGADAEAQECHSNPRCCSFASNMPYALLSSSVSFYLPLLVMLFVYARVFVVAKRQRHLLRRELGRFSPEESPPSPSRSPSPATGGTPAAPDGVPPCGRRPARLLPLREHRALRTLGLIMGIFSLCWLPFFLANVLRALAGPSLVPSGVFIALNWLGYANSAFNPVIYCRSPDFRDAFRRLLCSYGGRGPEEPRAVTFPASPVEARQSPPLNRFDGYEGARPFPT

For `C[C@H](Cc1ccc(OCC(=O)O)cc1)NC[C@H](O)c1cccc(Cl)c1` [compound 3, BRL37344], the EC50 is 0.692 nM.

Broadly, the EC50 is the concentration at which the effect is half-maximal. A lower EC50 goes with a more potent agent.
